Test results taken from patent US20240148728A1, “NOVEL METHOD TO BLOCK IN[…] DEATH AND IL-1BETA SECRETION CAUSED BY […] UV I[…] GENETIC AND CHEMICAL INHIBITORS OF ZAKA AND THE NLRP1 INFLAMMASOME” (priority 2021, published 2024).

How the values were obtained:
[1] = test system: primary bronchial epithelial cells (NHBEs); test: Inflammasome activation and pyroptosis in primary bronchial epithelial cells; format: cell-based, human; conditions: ANS 1 μM
[2] = test system: 3D human organotypic skin; test: 3D organotypic skin histology and cleaved GSDMD-NT immunostaining; format: cell-based
Description: Organotypic cultures were generated by adapting a previously described protocol (Arnette et al., 2016). Briefly, 2 ml of collagen I (4 mg/ml; Corning, #354249) mixed with 7.5×10^5 human fibroblasts were allowed to polymerize over 1-m1 acellular collagen I in 6-well culture inserts (Falcon, #353102) placed in 6-well deep well plate (Falcon, #355467). After 24 hours, 1×10^6 primary human keratinocytes were seeded into the inserts and kept submerged in a 3:1 DMEM (Hyclone, #SH30243.01) and F12 (Gibco, #31765035) mixture with 10% FBS (Hyclone, #SV30160.03), 100 U/ml penicillin-streptomycin (Gibco, #15140122), 10 μM Y-27632 (Tocris, #1254), 10 ng/ml EGF (Sigma-Aldrich, #E9644), 1×10^−10 M cholera toxin (Enzo, #BML-G117-001), 0.4 μg/ml hydrocortisone (Sigma-Aldrich, #H0888), 0.0243 mg/ml adenine (Sigma-Aldrich, #A2786), 5 μg/ml insulin (Sigma-Aldrich, #12643), 5 μg/ml transferrin (Sigma-Aldrich, #T2036) and 2×10^−9 M 3,3′,5′-triiodo-L-thyronine (Sigma-Aldrich, #T6397). After another 24 hours, the organotypic cultures were then raised at the air-liquid interface and fed with the submerged media (without Y-27632 and EGF) below the insert to induce epidermal differentiation. The air-lifting medium was replaced every 2 days and treatments began 10-14 days after airlifting. Organotypic cultures were then harvested 24 hours after treatment and formalin fixed for 24 hours. Fixed tissues were then embedded into wax for histological purposes.
For immunohistochemistry staining of cleaved N-terminal GSDMD a previously established protocol with modifications was used [Wang et al., Cell 180:941-955.e20 (2020)]. Briefly, 5 μm formalin fixed and paraffin embedded sections were deparaffinized and rehydrated through a series of alcohol. The sections were then rehydrated in an antigen retrieval buffer (Dako, Tris-EDTA, pH 9). Sections were then blocked in goat serum for 20 mins at RT before primary antibody incubated overnight at 4° C. Immunostaining was visualised using DAB substrate and chromogen detection kit (Dako, #K3468). Sections were then counterstained with Myer's Hematoxylin.

[3] = test system: mouse bone marrow derived macrophages (BMDMs); test: ANS-triggered IL1β secretion and cell death in mouse bone marrow derived macrophages; format: cell-based
NLRP1-NT = test: NLRP1 cleavage / NLRP1-NT level by immunoblot; format: cell-based, human
From the text: (§1) The following antibodies were used in this study: cleaved PARP1 (Abclonal, #WH162766), Cleaved CASP3 (Abclonal, #WH154646), Full length GSDMD-FL (Abcam, #ab210070), IL1β p17 specific (CST, #83186S), CARD8 (Abcam, CARD8-NT: ab19485, CARD8-CT: ab241186), DPP9 (Abcam, ab226334), c-Myc (Santa Cruz Biotechnology, #sc-40), HA tag (Santa Cruz Biotechnology, #sc-805), GAPDH (Santa Cruz Biotechnology, #sc-47724), ASC (Adipogen, #AL-177), CASP1 (Santa Cruz Biotechnology, #sc-622), 11_1B (R&D systems, #AF-201), FLAG (SigmaAldrich, #F3165), NLRP1 (R&D systems, #AF6788), IL18 (Abcam ab207324), cleaved GSDMD-NT (Asp275) (Cell Signaling Technology, #36425), RPL31 (Abclonal, #WH162766), CASP7 (Abcam, ab255818), CASP8 (Abcam, ab32397), cleaved CASP3 (Cell Signaling Technology, #9664). All horseradish peroxidase (HRP)— conjugated secondary antibodies were purchased from Jackson Immunoresearch (goat anti-mouse IgG: 115-035-166; goat anti-rabbit IgG: 111-035-144; and donkey anti-goat IgG: 705-005-147). Blue-Native PAGE was carried out using the Native-PAGE system (ThermoFisher) with 10-20 μg of total lysate. For SDS-PAGE using whole cell lysates, cells were resuspended in tris-buffered saline 1% NP-40 with protease inhibitors (Thermo Scientific, #78430). Protein concentration was determined using the Bradford assay (Thermo Scientific, #23200) and […] of protein loaded, a part from cleaved GSDMD-NT visualisation where […] of protein was used. All primary antibodies were used at 250 ng/ml. Visualisation of ASC oligomerization was previously described (Robinson et al., 2020). For analysis of IL1β and IL-18 cleavage in the media by immunoblotting, samples were concentrated using filtered centrifugation (Merck, Amicon Ultra, #UFC5003BIK). Protein samples were run using immunoblotting, and then visualized using a ChemiDoc Imaging system (Bio-Rad). PhosTag SDS-PAGE was carried out using homemade 10% SDS-PAGE gel, with addition of Phos-tag Acrylamide (Wako Chemicals, AAL-107) to a final concentration of 30 μM and manganese chloride(II) (Sigma-Aldrich, #63535) to 60 μM.

[4] = test system: primary human keratinocytes; test: Inflammasome-driven pyroptosis in primary human keratinocytes; format: cell-based; conditions: keratinocytes freshly isolated from a healthy donor
293T-ASC-GFP-NLRP1 = format: cell-based, human
MV4-11 = test: GSDMD cleavage in MV4-11 leukemia cell line; format: cell-based, human; conditions: CARD8-activating cell line
N-TERT cells = test: Secreted IL1β / inflammasome activation in N-TERT cells; format: cell-based, human
Description: To measure secreted cytokine and chemokine levels a human IL1β enzyme linked immunosorbent assay (ELISA) kit (BD, #557953), human IL-18 ELISA kit (MBL, #7620) or an Immune Monitoring 65-Plex Human ProcartaPlex Panel (EPX650-10065-901) were used according to manufacturer's protocols. Further analysis of Luminex or ELISA profiling of samples was performed using heatmap and PCA analysis on Clustervis (biitdotcsdotutdotee/clustvis/) [Somani et al., Proceeding of SSIC (2019)].
as §1

Compound: COc1ccc(C[C@H]2NC[C@H](O)[C@H]2OC(C)=O)cc1 [ANS, Anisomycin]
- canonical inflammasome activation and pyroptosis [1]: underwent canonical inflammasome activation and pyroptosis
- epidermal dyskeratosis ([2]; H&E, 24 hours after treatment): caused striking epidermal dyskeratosis
- cleaved GSDMD N-terminal fragment at the cell membrane ([2]; immunostaining): prominently enriched at the cell membrane
- IL1β secretion and cell death, wild-type versus Nlrp1a/b KO [3]: did not differ between wild-type and NIrp1a/b KO
- specific cleavage of overexpressed NLRP1 (smaller bands) (NLRP1-NT; ANS-treated cells): did not observe any smaller bands
- level of intact NLRP1-NT (NLRP1-NT; NLRP1 KO keratinocytes rescued with full-length NLRP1): caused a significant reduction in the level of intact NLRP1-NT
- inflammasome-driven pyroptosis [4]: induce inflammasome-driven pyroptosis was also confirmed
- ASC-GFP speck formation, screen of cytotoxic chemicals (293T-ASC-GFP-NLRP1; ANS 1 μM, LTM 1 μg/ml, STS 1 μM): identified two hits
- percentage of cells with ASC-GFP specks compared with VbP (293T-ASC-GFP-NLRP1; equivalent concentrations): to a greater extent than VbP at equivalent concentrations
- dose dependence of percentage of cells with ASC-GFP specks (293T-ASC-GFP-NLRP1; increasing levels of ANS): in a dose-dependent manner (FIG. 2B) up to 20 μM
- GSDMD cleavage (MV4-11): did not display detectable GSDMD cleavage
- IL1β secretion and pyroptotic death in ZAKα KO cells (N-TERT cells; ZAKα KO N-TERT cells): completely resistant
- IL1β secretion at high concentration versus lower doses (N-TERT cells; ultra-high doses of ANS): significant decrease in IL1β secretion as compared to lower doses
